The target of assay [1] is T1, Serine/threonine-protein kinase DCLK3 (Homo sapiens) (UniProt Q9C098).
T1 sequence (whole entry): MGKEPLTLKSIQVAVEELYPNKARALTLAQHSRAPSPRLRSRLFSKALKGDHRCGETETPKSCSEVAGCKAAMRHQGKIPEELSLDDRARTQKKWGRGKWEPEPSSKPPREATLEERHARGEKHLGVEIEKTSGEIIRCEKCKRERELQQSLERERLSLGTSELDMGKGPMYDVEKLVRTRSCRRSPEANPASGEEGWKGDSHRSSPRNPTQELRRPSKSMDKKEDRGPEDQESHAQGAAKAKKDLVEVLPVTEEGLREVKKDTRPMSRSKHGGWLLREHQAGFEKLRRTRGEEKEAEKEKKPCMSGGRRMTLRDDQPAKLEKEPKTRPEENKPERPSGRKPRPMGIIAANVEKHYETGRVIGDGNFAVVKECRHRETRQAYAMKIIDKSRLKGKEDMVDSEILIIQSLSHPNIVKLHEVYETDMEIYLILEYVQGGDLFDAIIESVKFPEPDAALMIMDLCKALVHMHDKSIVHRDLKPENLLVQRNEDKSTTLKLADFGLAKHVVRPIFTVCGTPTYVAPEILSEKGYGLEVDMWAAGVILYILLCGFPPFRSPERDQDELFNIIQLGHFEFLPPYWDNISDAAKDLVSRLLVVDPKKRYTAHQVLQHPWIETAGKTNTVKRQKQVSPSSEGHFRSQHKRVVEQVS
As to conditions: at 10 µM.

Assay [2] concerns the target RAC-beta serine/threonine-protein kinase (Homo sapiens) (UniProt P31751). Put plainly: Selectivity interaction (KinomeScan (DiscoverX)) EUB0000666a AKT2. Particulars: at 10 µM.
Assay [3] deals with T2, 3-phosphoinositide-dependent protein kinase 1 (Homo sapiens) (UniProt O15530).
T2 sequence (whole entry): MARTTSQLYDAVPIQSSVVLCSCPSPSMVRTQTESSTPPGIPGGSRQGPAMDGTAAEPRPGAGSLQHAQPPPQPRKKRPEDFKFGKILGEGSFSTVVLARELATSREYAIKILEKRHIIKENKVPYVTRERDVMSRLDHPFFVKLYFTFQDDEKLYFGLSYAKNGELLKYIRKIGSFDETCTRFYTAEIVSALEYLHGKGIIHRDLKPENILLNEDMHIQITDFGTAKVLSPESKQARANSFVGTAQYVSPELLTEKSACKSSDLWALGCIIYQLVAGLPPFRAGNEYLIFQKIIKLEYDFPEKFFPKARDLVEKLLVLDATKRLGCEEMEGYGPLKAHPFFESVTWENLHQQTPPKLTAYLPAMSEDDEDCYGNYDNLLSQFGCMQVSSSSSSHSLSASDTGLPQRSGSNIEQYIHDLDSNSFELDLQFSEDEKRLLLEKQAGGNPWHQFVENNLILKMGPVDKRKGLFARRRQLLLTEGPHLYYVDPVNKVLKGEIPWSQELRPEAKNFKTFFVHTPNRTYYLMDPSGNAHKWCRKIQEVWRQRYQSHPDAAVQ
The assay can be described thus: Selectivity interaction (KinomeScan (DiscoverX)) EUB0000607a PDPK1. As to conditions: at 10 µM.

The target of assay [4] is Casein kinase I isoform gamma-3 (Homo sapiens) (UniProt Q9Y6M4). Put plainly: Selectivity interaction (Ambit KINOMEscan and KiNATiv profiling in Jurkat cells) EUB0000090b CSNK1G3. Type of assay: cell-based. As to conditions: at 1 µM.
The target in assay [5] is Mitogen-activated protein kinase kinase kinase 20 (Homo sapiens) (UniProt Q9NYL2). The assay can be described thus: Selectivity interaction (KinomeScan (DiscoverX)) EUB0001049a MAP3K20. As to conditions: at 1 µM.
Assay [6] has as its target T3, cGMP-dependent protein kinase 1 (Homo sapiens) (UniProt Q13976).
T3 sequence (whole entry): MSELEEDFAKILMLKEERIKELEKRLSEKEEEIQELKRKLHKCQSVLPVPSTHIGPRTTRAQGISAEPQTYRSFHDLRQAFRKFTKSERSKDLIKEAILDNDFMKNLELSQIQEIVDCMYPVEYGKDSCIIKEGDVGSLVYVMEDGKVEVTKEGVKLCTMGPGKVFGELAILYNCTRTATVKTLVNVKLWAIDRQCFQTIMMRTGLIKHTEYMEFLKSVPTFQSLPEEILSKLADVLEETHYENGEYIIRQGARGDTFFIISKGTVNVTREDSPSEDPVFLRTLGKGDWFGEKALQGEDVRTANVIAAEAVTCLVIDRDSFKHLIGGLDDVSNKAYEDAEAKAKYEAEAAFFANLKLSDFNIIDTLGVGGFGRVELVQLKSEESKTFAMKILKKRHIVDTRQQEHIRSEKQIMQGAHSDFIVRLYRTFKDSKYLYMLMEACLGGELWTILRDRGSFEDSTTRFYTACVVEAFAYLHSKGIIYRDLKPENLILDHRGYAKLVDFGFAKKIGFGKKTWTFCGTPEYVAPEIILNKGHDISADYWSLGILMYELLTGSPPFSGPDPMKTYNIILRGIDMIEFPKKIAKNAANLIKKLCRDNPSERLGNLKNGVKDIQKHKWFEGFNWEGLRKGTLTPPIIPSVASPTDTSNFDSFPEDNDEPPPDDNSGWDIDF
Put plainly: Selectivity interaction (KinomeScan (DiscoverX)) EUB0001079a PRKG1. Particulars: at 1 µM.

For assay [7], the system named is Tyrosine-protein kinase ABL1 (Homo sapiens), P00519 [F317I]. Put plainly: Selectivity interaction (KinomeScan (DiscoverX)) EUB0000229b ABL1. As to conditions: at 1 µM.

For seven molecules, % of control and % binding results are on record in ChEMBL document CHEMBL5465560, “Selectivity Literature for EUbOPEN Chemogenomic Library” (2024).

Sequence of Mitogen-activated protein kinase kinase kinase 20 (Homo sapiens) (Q9NYL2 2-800 limits assumed): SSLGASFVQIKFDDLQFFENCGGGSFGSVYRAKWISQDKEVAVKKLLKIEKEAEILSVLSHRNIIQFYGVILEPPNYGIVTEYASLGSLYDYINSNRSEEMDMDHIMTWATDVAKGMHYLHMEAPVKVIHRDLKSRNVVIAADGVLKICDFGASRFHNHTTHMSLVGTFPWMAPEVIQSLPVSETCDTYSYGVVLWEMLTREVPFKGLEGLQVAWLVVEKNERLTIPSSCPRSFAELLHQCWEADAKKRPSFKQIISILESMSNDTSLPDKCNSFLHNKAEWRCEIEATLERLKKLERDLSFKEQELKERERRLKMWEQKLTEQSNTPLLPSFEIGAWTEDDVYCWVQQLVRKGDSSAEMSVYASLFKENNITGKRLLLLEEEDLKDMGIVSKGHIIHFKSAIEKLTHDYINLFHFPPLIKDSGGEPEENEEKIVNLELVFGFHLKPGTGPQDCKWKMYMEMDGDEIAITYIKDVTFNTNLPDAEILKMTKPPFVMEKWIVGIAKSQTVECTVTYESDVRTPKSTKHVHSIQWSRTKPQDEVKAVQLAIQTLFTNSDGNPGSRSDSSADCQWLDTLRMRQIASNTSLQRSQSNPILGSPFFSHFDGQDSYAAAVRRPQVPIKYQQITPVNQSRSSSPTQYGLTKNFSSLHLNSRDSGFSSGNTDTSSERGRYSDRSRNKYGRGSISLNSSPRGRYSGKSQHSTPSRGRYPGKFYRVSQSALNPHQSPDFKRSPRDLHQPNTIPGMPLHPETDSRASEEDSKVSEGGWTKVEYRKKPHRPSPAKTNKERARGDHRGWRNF
Sequence of RAC-beta serine/threonine-protein kinase (Homo sapiens) (P31751 whole entry): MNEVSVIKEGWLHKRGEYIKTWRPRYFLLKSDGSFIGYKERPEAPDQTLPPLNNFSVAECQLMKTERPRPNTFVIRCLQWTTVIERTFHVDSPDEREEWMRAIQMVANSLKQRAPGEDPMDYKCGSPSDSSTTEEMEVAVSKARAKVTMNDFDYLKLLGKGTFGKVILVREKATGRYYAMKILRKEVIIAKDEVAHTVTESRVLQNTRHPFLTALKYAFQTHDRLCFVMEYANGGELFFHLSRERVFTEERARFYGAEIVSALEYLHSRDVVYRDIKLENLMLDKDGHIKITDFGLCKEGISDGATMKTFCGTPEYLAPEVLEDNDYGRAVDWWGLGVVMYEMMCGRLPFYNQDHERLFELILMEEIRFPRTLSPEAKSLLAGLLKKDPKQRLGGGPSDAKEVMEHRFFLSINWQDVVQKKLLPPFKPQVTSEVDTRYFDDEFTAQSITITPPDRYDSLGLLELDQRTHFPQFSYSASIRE
Sequence of Tyrosine-protein kinase ABL1 (Homo sapiens), P00519 [F317I] (P00519 whole entry F317I): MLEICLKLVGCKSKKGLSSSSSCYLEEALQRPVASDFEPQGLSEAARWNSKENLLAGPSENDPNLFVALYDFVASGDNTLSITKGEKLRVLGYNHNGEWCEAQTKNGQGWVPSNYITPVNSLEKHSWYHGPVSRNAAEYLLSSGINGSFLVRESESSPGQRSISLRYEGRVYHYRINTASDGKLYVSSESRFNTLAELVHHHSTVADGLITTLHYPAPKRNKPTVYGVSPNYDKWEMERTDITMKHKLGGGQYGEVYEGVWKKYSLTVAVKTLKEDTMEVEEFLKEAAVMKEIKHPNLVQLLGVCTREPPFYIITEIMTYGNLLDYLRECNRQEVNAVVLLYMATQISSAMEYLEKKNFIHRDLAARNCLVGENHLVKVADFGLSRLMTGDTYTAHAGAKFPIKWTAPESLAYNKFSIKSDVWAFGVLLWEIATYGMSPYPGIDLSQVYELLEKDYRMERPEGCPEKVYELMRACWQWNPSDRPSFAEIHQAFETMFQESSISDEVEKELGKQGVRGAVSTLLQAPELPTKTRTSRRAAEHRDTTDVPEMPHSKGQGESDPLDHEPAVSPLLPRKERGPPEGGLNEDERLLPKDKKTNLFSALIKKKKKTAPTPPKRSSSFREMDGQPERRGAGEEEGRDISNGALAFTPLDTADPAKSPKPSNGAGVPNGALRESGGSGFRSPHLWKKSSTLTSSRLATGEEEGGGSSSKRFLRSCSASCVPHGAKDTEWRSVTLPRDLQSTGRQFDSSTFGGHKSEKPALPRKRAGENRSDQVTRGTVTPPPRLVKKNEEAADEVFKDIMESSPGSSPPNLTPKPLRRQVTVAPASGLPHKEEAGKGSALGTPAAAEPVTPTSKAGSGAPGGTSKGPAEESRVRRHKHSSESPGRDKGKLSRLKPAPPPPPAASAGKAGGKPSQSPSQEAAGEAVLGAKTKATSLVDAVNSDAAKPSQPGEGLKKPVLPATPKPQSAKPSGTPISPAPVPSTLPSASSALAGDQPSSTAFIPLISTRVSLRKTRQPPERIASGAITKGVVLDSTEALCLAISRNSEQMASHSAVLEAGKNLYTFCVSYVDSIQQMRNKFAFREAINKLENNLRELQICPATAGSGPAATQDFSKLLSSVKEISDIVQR
Sequence of Casein kinase I isoform gamma-3 (Homo sapiens) (Q9Y6M4 whole entry, looked up, canonical isoform): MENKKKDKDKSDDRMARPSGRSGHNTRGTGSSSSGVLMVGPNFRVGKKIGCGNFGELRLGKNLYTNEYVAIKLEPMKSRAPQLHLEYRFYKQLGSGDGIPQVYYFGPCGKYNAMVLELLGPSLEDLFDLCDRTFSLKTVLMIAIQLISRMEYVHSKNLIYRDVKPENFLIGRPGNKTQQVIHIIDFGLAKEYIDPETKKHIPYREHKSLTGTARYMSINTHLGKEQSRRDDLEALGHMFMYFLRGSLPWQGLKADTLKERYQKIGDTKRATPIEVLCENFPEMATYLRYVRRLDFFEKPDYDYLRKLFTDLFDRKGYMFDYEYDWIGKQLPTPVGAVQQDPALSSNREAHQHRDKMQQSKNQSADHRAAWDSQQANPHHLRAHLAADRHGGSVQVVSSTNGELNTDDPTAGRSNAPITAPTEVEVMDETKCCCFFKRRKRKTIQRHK

As for `CCN(CC)CCCCNc1ncc2cc(-c3cc(OC)cc(OC)c3)c(NC(=O)NC(C)(C)C)nc2n1`, the % of control in assay [1] amounted to 100%.

As for `O=C(NOC[C@H](O)CO)c1ccc(F)c(F)c1Nc1ccc(I)cc1F`, the % of control in assay [2] was 100%.

`CNC(=O)Nc1ccc(-c2nc(N3CC4CCC(C3)O4)c3cnn(C4CCC5(CC4)OCCO5)c3n2)cc1`: the % of control in assay [3] was found to be 76%.

In the case of `CN(C)C/C=C/C(=O)Nc1ccc(C(=O)N2CCCC(Nc3ncc(Cl)c(-c4c[nH]c5ccccc45)n3)C2)cc1` (configuration not stated), the % of control in assay [4] came out at 67%.

For the molecule `COc1cc(Nc2nc(C)cc(-c3cnn4nc(OC)ccc34)n2)cc(C(F)(F)F)c1`, in assay [5], the % of control is 77%.

As to `Nc1cnc(N2CCc3cc(S(=O)(=O)Nc4c(F)cc(Cl)cc4F)cc(N4CCCC4=O)c32)nc1` [TP-020n], the % of control in assay [6] came to 97%.

In turn, `COc1cc(N(C)c2ccnc3ccc(C(F)(F)F)cc23)cc(OC)c1OC` showed a % binding in assay [7] of 96%.
